Structures are written as SMILES. “And” between values parts separate entries of the source, which are not always exact repeats. Equal values may be shown once.

The first experiment deals with T1, recombinant rabbit GSK-3β protein (Oryctolagus cuniculus, UniProt G1T8E2).
T1 construct: purchased New England Biolabs
T1 sequence (G1T8E2 1-432): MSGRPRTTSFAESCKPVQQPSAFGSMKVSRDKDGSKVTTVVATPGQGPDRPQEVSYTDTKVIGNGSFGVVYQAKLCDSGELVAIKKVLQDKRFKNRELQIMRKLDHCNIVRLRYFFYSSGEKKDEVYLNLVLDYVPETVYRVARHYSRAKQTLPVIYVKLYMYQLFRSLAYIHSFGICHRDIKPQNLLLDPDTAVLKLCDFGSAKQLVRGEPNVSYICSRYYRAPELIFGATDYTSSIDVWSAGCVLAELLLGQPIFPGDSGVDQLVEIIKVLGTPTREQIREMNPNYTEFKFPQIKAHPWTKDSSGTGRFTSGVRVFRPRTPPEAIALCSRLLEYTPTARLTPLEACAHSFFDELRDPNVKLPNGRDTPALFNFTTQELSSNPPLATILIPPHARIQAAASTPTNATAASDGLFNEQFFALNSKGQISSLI
The experiment is described as follows: Glycogen Synthase Kinase-3 Assay (33P phosphorylation of PPI-2). It is filed as biochemical. Conditions: @100 nM. The procedure: Glycogen Synthase Kinase-3 Assay
Compounds were tested for the ability to inhibit recombinant rabbit GSK-3β protein using the following protocol. The test compound was added to a reaction mixture containing Protein Phosphatase Inhibitor-2 (PPI-2) (Calbiochem) (45 ng), rabbit GSK-3β protein (New England Biolabs) (0.75 units) and ^33P-ATP (1 μCi) in 50 mM Tris-HCl (pH 8.0), 10 mM MgCl2, 0.1% BSA, 1 mM DTT and 100 μM Sodium Vanadate. The mixture was reacted for 90 minutes at 30° C. to allow phosphorylation of the PPI-2 protein and then the protein in the reaction was precipitated using 10% TCA. The precipitated protein was collected on filter plates (MultiScreen-DV/Millipore), which were subsequently washed. Finally, the radioactivity was quantified using a TopCount Scintillation Counter (Packard). […] Staurosporine or Valproate, known inhibitors of GSK-3β, were used as a positive control for screening.
By inhibition is commonly meant the percentage by which the read-out fell short of the control. For `O=C1NC(=O)C(c2cn(CCCO)c3ncccc23)=C1c1n[nH]c2ccccc12` [Cpd 6, 3-[1-(3-hydroxypropyl)-1H-pyrrolo[2,3-b]pyridin-3-yl]-4-(1H-indazol-3-yl)-1H-pyrrole-2,5-dione], the inhibition at 0.1 µM stood at 56%.
The same measure, in the same setting: the result for `O=C1NC(=O)C(c2cn(CCCO)c3ncccc23)=C1c1ncc[nH]1` [Cpd 17, 3-[1-(3-hydroxypropyl)-1H-pyrrolo[2,3-b]pyridin-3-yl]-4-(1H-imidazol-2-yl)-1H-pyrrole-2,5-dione] reads 19%.

The same experiment, now with this note: @200 nM.
In the case of `O=C1NC(=O)C(c2cn(CCCO)c3ncccc23)=C1c1cn(CCCO)cn1` [Cpd 18, 3-[1-(3-hydroxypropyl)-1H-imidazol-4-yl]-4-[1-(3-hydroxypropyl)-1H-pyrrolo[2,3-b]pyridin-3-yl]-1H-pyrrole-2,5-dione], the inhibition at 0.2 µM stood at 29%.
Same read-out and setting: the result for `O=C1NC(=O)C(c2cn(CCCO)c3ncccc23)=C1c1cn(CCO)cn1` [Cpd 19, 3-[1-(2-hydroxyethyl)-1H-imidazol-4-yl]-4-[1-(3-hydroxypropyl)-1H-pyrrolo[2,3-b]pyridin-3-yl]-1H-pyrrole-2,5-dione] reads 25%.

Staying with this experiment, now noted: @1 μM; two numbers = different days.
Consider `Cc1noc(C)c1C1=C(c2cn(CCCO)c3ncccc23)C(=O)NC1=O` [Cpd 44, 3-(3,5-Dimethyl-isoxazol-4-yl)-4-[1-(3-hydroxy-propyl)-1H-pyrrolo[2,3-b]pyridin-3-yl]-pyrrole-2,5-dione], for which the inhibition at 1 µM was 32%.
Still for that read-out and setting: under `O=C1NC(=O)C(c2cn(CCCO)c3ncccc23)=C1c1ncccn1` [Cpd 56, 3-[1-(3-Hydroxy-propyl)-1H-pyrrolo[2,3-b]pyridin-3-yl]-4-pyrimidin-2-yl-pyrrole-2,5-dione] stands 23%.

Still in this experiment, the particulars now being: two numbers = data obtained on different days.
As a reminder, the IC50 is the concentration that inhibits the measured activity by half. Consider `CCn1cc(C2=C(c3cn(CCCO)c4ncccc34)C(=O)NC2=O)c2cccnc21` [Cpd 7, 3-(1-ethyl-1H-pyrrolo[2,3-b]pyridin-3-yl)-4-[1-(3-hydroxypropyl)-1H-pyrrolo[2,3-b]pyridin-3-yl]-1H-pyrrole-2,5-dione], for which the IC50 came to 51 nM.
Still for that read-out and setting: under `COc1ccccc1C1=C(c2cn(CCCO)c3ncccc23)C(=O)NC1=O` [Cpd 8, 3-[1-(3-hydroxypropyl)-1H-pyrrolo[2,3-b]pyridin-3-yl]-4-(2-methoxyphenyl)-1H-pyrrole-2,5-dione] stands 3 nM.
On the same count and under the same terms, the result for `COc1cccc(C2=C(c3cn(CCCO)c4ncccc34)C(=O)NC2=O)c1` [Cpd 9, 3-[1-(3-hydroxypropyl)-1H-pyrrolo[2,3-b]pyridin-3-yl]-4-(3-methoxyphenyl)-1H-pyrrole-2,5-dione] reads 11 nM; that for `O=C1NC(=O)C(c2cn(CCCO)c3ncccc23)=C1c1ccc(F)cc1Cl` [Cpd 10, 3-(2-chloro-4-fluorophenyl)-4-[1-(3-hydroxypropyl)-1H-pyrrolo[2,3-b]pyridin-3-yl]-1H-pyrrole-2,5-dione], 10 nM; that for `O=C1NC(=O)C(c2cn(CCCO)c3ncccc23)=C1c1ccccc1C(F)(F)F` [Cpd 11, 3-[1-(3-hydroxypropyl)-1H-pyrrolo[2,3-b]pyridin-3-yl]-4-[2-(trifluoromethyl)phenyl]-1H-pyrrole-2,5-dione], 4 nM.
On the same count and under the same terms, the result for `O=C1NC(=O)C(c2cn(CCCO)c3ncccc23)=C1c1ncc(C(F)(F)F)cc1Cl` [Cpd 13, 3-[3-chloro-5-(trifluoromethyl)-2-pyridinyl]-4-[1-(3-hydroxypropyl)-1H-pyrrolo[2,3-b]pyridin-3-yl]-1H-pyrrole-2,5-dione] reads 36 nM; that for `O=C1NC(=O)C(c2cn(CCCO)c3ncccc23)=C1c1cccs1` [Cpd 14, 3-[1-(3-hydroxypropyl)-1H-pyrrolo[2,3-b]pyridin-3-yl]-4-(2-thienyl)-1H-pyrrole-2,5-dione], 6 nM.
Take `O=C1NC(=O)C(c2cn(CCCO)c3ncccc23)=C1c1cc(Cl)sc1Cl` [Cpd 15, 3-(2,5-dichloro-3-thienyl)-4-[1-(3-hydroxypropyl)-1H-pyrrolo[2,3-b]pyridin-3-yl]-1H-pyrrole-2,5-dione]: the IC50 came to 6 nM.
The same measure, in the same setting: the result for `O=C1NC(=O)C(c2cn(CCCO)c3ncccc23)=C1c1ccn(CCCO)n1` [Cpd 16, 3-[1-(3-hydroxypropyl)-1H-pyrazol-3-yl]-4-[1-(3-hydroxypropyl)-1H-pyrrolo[2,3-b]pyridin-3-yl]-1H-pyrrole-2,5-dione] reads 100 nM; that for `O=C1NC(=O)C(c2cn(CCCO)c3ncccc23)=C1/C=C/c1ccc(F)cc1` [Cpd 22, 3-[(E)-2-(4-fluorophenyl)ethenyl]-4-[1-(3-hydroxypropyl)-1H-pyrrolo[2,3-b]pyridin-3-yl]-1H-pyrrole-2,5-dione], 330 nM; that for `O=C1NC(=O)C(c2cn(CCCO)c3ncccc23)=C1C1=CCCCO1` [Cpd 23, 3-(3,4-dihydro-2H-pyran-6-yl)-4-[1-(3-hydroxypropyl)-1H-pyrrolo[2,3-b]pyridin-3-yl]-1H-pyrrole-2,5-dione], 158 nM and 51 nM.
Take `O=C1NC(=O)C(c2cn(CCCO)c3ncccc23)=C1c1cc[nH]c1` [Cpd 24, 4-[1-(3-hydroxypropyl)-1H-pyrrolo[2,3-b]pyridin-3-yl]-[3,3′-bi-1H-pyrrole]-2,5-dione]: the concentration for half-maximal inhibition (IC50) is 15 nM and 8 nM.
On the same count and under the same terms, under `O=C1NC(=O)C(c2cn(CCCO)c3ncccc23)=C1c1cc2ccccc2o1` [Cpd 25, 3-(2-benzofuranyl)-4-[1-(3-hydroxypropyl)-1H-pyrrolo[2,3-b]pyridin-3-yl]-1H-pyrrole-2,5-dione] stands 71 nM and 44 nM; under `Cn1ccc(C2=C(c3cn(CCCO)c4ncccc34)C(=O)NC2=O)n1` [Cpd 26, 3-[1-(3-hydroxypropyl)-1H-pyrrolo[2,3-b]pyridin-3-yl]-4-(1-methyl-1H-pyrazol-3-yl)-1H-pyrrole-2,5-dione], 70 nM and 120 nM; under `O=C1NC(=O)C(c2cn(CCCO)c3ncccc23)=C1c1ccc(O)c(O)c1` [Cpd 32, 3-(3,4-dihydroxyphenyl)-4-[1-(3-hydroxypropyl)-1H-pyrrolo[2,3-b]pyridin-3-yl]-1H-pyrrole-2,5-dione], 67 nM and 95 nM.
With `O=C1NC(=O)C(c2cn(CCCO)c3ncccc23)=C1c1cncnc1` [Cpd 41, 3-[1-(3-Hydroxy-propyl)-1H-pyrrolo[2,3-b]pyridin-3-yl]-4-pyrimidin-5-yl-pyrrole-2,5-dione], the IC50 was 37 nM and 42 nM.
With `O=C1NC(=O)C(c2cccc3cccnc23)=C1c1cn(CCCO)c2ncccc12` [Cpd 42, 3-[1-(3-Hydroxy-propyl)-1H-pyrrolo[2,3-b]pyridin-3-yl]-4-quinolin-8-yl-pyrrole-2,5-dione], the IC50 was 123 nM and 106 nM.
On the same count and under the same terms, under `O=C1NC(=O)C(c2cn(CCCO)c3ncccc23)=C1c1cc2ccccc2s1` [Cpd 43, 3-Benzo[b]thiophen-2-yl-4-[1-(3-hydroxy-propyl)-1H-pyrrolo[2,3-b]pyridin-3-yl]-pyrrole-2,5-dione] stands 198 nM and 126 nM; under `O=C1NC(=O)C(c2cn(CCCO)c3ncccc23)=C1c1cccoc1=O` [Cpd 45, 3-[1-(3-Hydroxy-propyl)-1H-pyrrolo[2,3-b]pyridin-3-yl]-4-(2-oxo-2H-pyran-3-yl)-pyrrole-2,5-dione], 28 nM and 18 nM; under `Cn1ccc(C2=C(c3cn(CCCO)c4ncccc34)C(=O)NC2=O)c1` [Cpd 46, 4-[1-(3-Hydroxy-propyl)-1H-pyrrolo[2,3-b]pyridin-3-yl]-1′-methyl-1′H-[3,3′]bipyrrolyl-2,5-dione], 38 nM and 37 nM.
The same measure, in the same setting: under `O=C1NC(=O)C(c2cn(CCCO)c3ncccc23)=C1c1ccn(Cc2ccccc2)c1` [Cpd 48, 1′-Benzyl-4-[1-(3-hydroxy-propyl)-1H-pyrrolo[2,3-b]pyridin-3-yl]-1′H-[3,3′]bipyrrolyl-2,5-dione] stands 47 nM and 38 nM; under `O=C1NC(=O)C(c2cn(CCCO)c3ncccc23)=C1c1cnc(-c2ccccc2)o1` [Cpd 49, 3-[1-(3-Hydroxy-propyl)-1H-pyrrolo[2,3-b]pyridin-3-yl]-4-(2-phenyl-oxazol-5-yl)-pyrrole-2,5-dione], 56 nM and 58 nM; under `O=C1NC(=O)C(c2cn(CCCO)c3ncccc23)=C1c1cc2n(n1)CCC2` [Cpd 50, 3-(5,6-Dihydro-4H-pyrrolo[1,2-b]pyrazol-2-yl)-4-[1-(3-hydroxy-propyl)-1H-pyrrolo[2,3-b]pyridin-3-yl]-pyrrole-2,5-dione], 88 nM and 107 nM.
On the same count and under the same terms, the result for `O=C1NC(=O)C(c2cn(CCCO)c3ncccc23)=C1C1=COCCO1` [Cpd 51, 3-(5,6-Dihydro-[1,4]dioxin-2-yl)-4-[1-(3-hydroxy-propyl)-1H-pyrrolo[2,3-b]pyridin-3-yl]-pyrrole-2,5-dione] reads 150 nM and 187 nM; that for `O=C1NC(=O)C(c2cn(CCCO)c3ncccc23)=C1c1ccco1` [Cpd 53, 3-Furan-2-yl-4-[1-(3-hydroxy-propyl)-1H-pyrrolo[2,3-b]pyridin-3-yl]-pyrrole-2,5-dione], 211 nM and 143 nM; that for `O=C1NC(=O)C(c2cn(CCCO)c3ncccc23)=C1c1cc2n(n1)CCCC2` [Cpd 54, 3-[1-(3-Hydroxy-propyl)-1H-pyrrolo[2,3-b]pyridin-3-yl]-4-(4,5,6,7-tetrahydro-pyrazolo[1,5-a]pyridin-2-yl)-pyrrole-2,5-dione], 232 nM and 161 nM.
Regarding `COc1ncc(C2=C(c3cn(CCCc4ccccc4)c4ncccc34)C(=O)NC2=O)c(OC)n1` [Cpd 57, 3-(2,4-Dimethoxy-pyrimidin-5-yl)-4-[1-(3-phenyl-propyl)-1H-pyrrolo[2,3-b]pyridin-3-yl]-pyrrole-2,5-dione], the IC50 was 15 nM and 10 nM.
Same read-out and setting: the result for `O=C1NC(=O)C(c2cn(CCCc3ccccc3)c3ncccc23)=C1c1cncnc1` [Cpd 58, 3-[1-(3-Phenyl-propyl)-1H-pyrrolo[2,3-b]pyridin-3-yl]-4-pyrimidin-5-yl-pyrrole-2,5-dione] reads 366 nM and 344 nM.

These data come from patent publication US7125878B2, “Substituted pyrroline kinase inhibitors” (Janssen Pharmaceutica, priority 2002, dated 2006).
